Experimental data from patent US4532258A, “Certain cyclopropane carboxylic acid esters and their pesticidal use” (priority 1979, dated 1985).
Values after ≈ are worked out from the molar mass of the structure shown.

Experiments:
Fish toxicity test = type: in vivo; details: guppy, water, female guppies, 20° C., 50% killed, read-out: TLm (medium tolerance limit)
Procedure: The mixture was stirred well to prepare a test water. Ten female guppies from 3 to 4 months of age were released into the test water and maintained at 20° C. The concentration of the test compound at which 50% of the guppies were killed during the ensuring 48 hours was determined. [This concentration is referred to as TLm (medium tolerance limit, ppm)].

[1] = Light stability test (residue after exposure to ultraviolet light); type: physicochemical; details: UV 3600 Å, 31°-35° C.
Procedure: Into 2.0 ml of acetone were dissolved 80 mg of each test compound. A 5 μl portion of the solution was taken and spread on a glass plate (Micro Standard Cover Glass, 18 m/m No. 1, 200 pcs, Matsunami Glass Ind., Ltd.) and the acetone was evaporated. The specimen was exposed to ultraviolet light from a fluorescent lamp (Tokyo Shibaura Electric Co., Ltd., FL20BL, glow-type, 100 V, 24.5 W, wavelength=3600 Å) which was fixed just above the specimen at a distance of 11 cm at a temperature of 31°-35° C. for a predetermined exposure time. The test liquid was washed away with 1.0 ml of methanol containing 0.04% of dioctyl phthalate as an internal reference and high-speed liquid chromatography was carried out on the washings to determine the residual amount of the test compound.

SMILES	LC50 at 48 h (Fish toxicity test)	Residue (%) ([1]; exposure time 3.5 hrs.)	Residue (%) ([1]; exposure time 3 days)	Residue (%) ([1]; exposure time 5 days)
CC1(C)[C@H](CC(Cl)(Cl)Cl)[C@H]1C(=O)OC(C#N)c1cccc(Oc2ccccc2)c1 (relative stereo) [(7) [Trans-isomer]]	0.5 to 10 µg/mL (≈ 1.1 to 22.1 µM)	–	–	–
C#CC(OC(=O)[C@@H]1[C@@H](CC(Cl)(Cl)Cl)C1(C)C)c1cccc(Oc2ccccc2)c1 (relative stereo) [(11) [Trans-isomer]]	≥ 10 µg/mL	–	–	–
C#CC(OC(=O)[C@@H]1[C@H](CC(C)(Cl)Cl)C1(C)C)c1cccc(Oc2ccccc2)c1 (relative stereo) [(13) [Cis-isomer]]	≥ 10 µg/mL	–	–	–
CC1(C)[C@H](C(=O)OC(C(N)=S)c2cccc(Oc3ccccc3)c2)[C@@H]1CC(Cl)(Cl)Cl (relative stereo) [(27) [Cis-isomer]]	≥ 10 µg/mL	–	–	–
CC1(C)C(CC(Cl)(Cl)Cl)C1C(=O)OC(C#N)c1cccc(OC=C(Cl)Cl)c1 (stereo not drawn) [(34) [Mixture]]	–	100%	88%	44%
C=CCC1=C(C)C(OC(=O)C2C(C=C(C)C)C2(C)C)CC1=O (stereo not drawn) [Allethrin, reference compound]	–	14%	0%	–
